Earlier results as cited in US20100086647A1, “FEED OR FOOD PRODUCTS COMPRISING FUNGAL MATERIAL” (MEDIMUSH AS, priority 2005, published 2010).

Tests used:
[1] = test system: E. coli; conditions: postulated
[2] = test system: B. megaterium; conditions: in vitro
[3] = test system: S. staphylococcus; conditions: in vitro
[4] = test system: S. pyogenes; conditions: in vitro
[5] = test system: C. jejuni; conditions: postulated
[6] = test system: cytochrome P450s (CYPs)

Compound	effect on microorganism [1]	antibacterial effect [2]	antibacterial effect [3]	antibacterial effect [4]	effect on microorganism [5]	expression of cytochrome P450s (CYPs) [6]
C1SSCSSS1 [Lenthionine]	no effect	antibacterial	antibacterial	antibacterial	no effect	–
Lentinan	–	–	–	–	–	can suppress the expression
